In one assay the test system is human telomerase. Briefly: Telomerase inhibition assay (HeLa cell extract). In kind it is biochemical. On the procedure:
The assay used crude HeLa cell extract as the source of human telomerase. It measures the incorporation of ^32P-labeled dGTP into the primer extension of human telomere synthesis (Sun et al., 1998). […] Specific examples of such dual-acting compounds include compounds 2b and 2a (FIG. 3).
The assay was performed by using 5′-end biotinylated d[TTAGGG]3 as the telomere primer. Reaction mixtures (20 μl) containing 5 μl cell lysate (S-100), 50 mM Tris-OAc (pH 8.5), 50 mM K-OAc, 1 mM MgCl2, 5 mM BME, 1 mM spermidine, 1 μM telomere primer, 1.5 μM [α-^32P]-dGTP (800 Ci/mmol), 1 mM dATP, and 1 mM dTTP were incubated at 37° C. for 1 hr, and the reactions were terminated by adding 20 μl of […] streptavidin-coated Dynabeads suspension containing 10 mM Tris-HCl (pH 7.5), 1 mM EDTA, 2M KCl, and a 500 cpm biotinylated internal control. Streptavidin-coated Dynabeads bind selectively to the desired target (5′-biotinylated primer), forming a magnetic bead-targeted complex. The complex was separated from the suspension using a Dynal MPC magnet and washed several times with 2×SSC buffer containing 0.1% SDS to eliminate [α-^32P]-dGTP background. Telomerase reaction products were separated from the magnetic beads by protein denaturation with 5.7 M guanidine-HCl at 90° C. for 30 min. After ethanol precipitation, products were resolved on denaturating 10% polyacrylamide gel.

A further assay has as its system supercoiled pHOT1 DNA. Briefly: DNA unwinding assay. In kind it is biochemical. As to conditions: concentration shifting topoisomers to the middle position between relaxed and supercoiled bands. On the procedure:
A 22 μl mixture of 0.25 μg of supercoiled pHOT1 DNA, 5 units of topoisomerase I in topoisomerase I buffer (provided with the kit) was incubated at 37° C. for 30 min. Two μl of various concentrations of drug was added, and the incubation was continued for another 30 min. The reactions were terminated by addition of SDS to 1%. Proteinase K was added to the reaction mixtures to ca. 50 μg/ml, and the reaction mixtures were incubated for 15-20 min at 56° C. After adding 0.1 volume of 10×gel loading buffer, the reaction mixtures were extracted with an equal volume of CIA (Chloroform:isoamyl Alcohol; 24:1). The samples were loaded on an 1% agarous gel that was cast in TPE buffer (36 mM Tris-HCl, pH 7.8, 1 mM EDTA, 30 mM NaH2PO4) and 0.2 μg/ml Chloroquine. The gel was run in TPE buffer at room temperature at 10 volts for 20 h, destained in water for 15 min, stained in 0.05 μg/ml ethidium bromide for 15 min, and destained again in water for 15 min. The gel was then photographed, scanned by FluoroImager, and analyzed by ImageQuaNT software (Molecular Dynamics).

Another assay deals with T1, human topoisomerase II (Homo sapiens, UniProt P11388).
T1 construct: purchased TopoGEN, Inc
T1 sequence (P11388 whole entry): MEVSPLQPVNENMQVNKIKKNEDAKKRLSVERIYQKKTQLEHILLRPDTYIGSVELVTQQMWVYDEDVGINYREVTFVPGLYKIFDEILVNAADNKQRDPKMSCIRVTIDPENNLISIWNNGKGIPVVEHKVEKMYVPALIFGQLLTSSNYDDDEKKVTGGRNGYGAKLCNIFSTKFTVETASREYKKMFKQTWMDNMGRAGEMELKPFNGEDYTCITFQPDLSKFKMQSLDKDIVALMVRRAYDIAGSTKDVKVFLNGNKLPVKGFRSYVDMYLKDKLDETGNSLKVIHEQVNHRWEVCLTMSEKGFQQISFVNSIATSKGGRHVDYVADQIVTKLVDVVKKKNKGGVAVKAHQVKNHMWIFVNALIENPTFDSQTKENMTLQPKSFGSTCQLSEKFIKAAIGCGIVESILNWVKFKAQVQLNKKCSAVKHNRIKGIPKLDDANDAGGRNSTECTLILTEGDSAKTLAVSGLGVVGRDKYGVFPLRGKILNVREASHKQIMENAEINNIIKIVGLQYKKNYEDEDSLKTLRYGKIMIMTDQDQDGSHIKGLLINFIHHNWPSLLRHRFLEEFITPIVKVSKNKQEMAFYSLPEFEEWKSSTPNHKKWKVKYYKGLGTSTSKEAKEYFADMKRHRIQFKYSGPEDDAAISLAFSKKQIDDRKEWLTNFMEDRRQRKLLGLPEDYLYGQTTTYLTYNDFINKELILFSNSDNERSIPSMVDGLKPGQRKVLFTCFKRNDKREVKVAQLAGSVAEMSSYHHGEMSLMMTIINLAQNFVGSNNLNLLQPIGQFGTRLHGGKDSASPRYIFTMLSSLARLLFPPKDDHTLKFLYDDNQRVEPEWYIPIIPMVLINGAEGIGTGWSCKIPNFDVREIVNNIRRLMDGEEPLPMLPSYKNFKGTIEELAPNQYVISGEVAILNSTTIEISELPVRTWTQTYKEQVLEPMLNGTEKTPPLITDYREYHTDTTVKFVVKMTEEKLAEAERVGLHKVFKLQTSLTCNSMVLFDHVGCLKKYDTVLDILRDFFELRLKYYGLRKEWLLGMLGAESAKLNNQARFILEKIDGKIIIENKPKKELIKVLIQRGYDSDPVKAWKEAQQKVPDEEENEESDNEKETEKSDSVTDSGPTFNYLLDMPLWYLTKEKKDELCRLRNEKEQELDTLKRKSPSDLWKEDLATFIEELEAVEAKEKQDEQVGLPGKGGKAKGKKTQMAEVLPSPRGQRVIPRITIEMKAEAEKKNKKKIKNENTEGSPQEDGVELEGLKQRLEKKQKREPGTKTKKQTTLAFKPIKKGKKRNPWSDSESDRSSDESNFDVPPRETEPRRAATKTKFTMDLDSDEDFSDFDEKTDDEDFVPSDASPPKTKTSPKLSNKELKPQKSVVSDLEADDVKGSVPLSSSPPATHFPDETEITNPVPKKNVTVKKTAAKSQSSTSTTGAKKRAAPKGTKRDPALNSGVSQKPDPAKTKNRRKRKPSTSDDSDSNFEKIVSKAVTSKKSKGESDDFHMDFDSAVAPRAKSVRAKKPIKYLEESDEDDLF
Briefly: Decatenation assay (catenated to decatenated KDNA). In kind it is biochemical. As to conditions: drug concentration that inhibits 50% of conversion of catenated to decatenated KDNA; read-out: topoisomerase II inhibition IC50. On the procedure:
Kinetoplast DNA (KDNA), human topoisomerase II (170 KDa form), and DNA Unwinding Kit including supercoiled pHOT1 DNA, relaxed DNA marker, buffers, and human topoisomerase I were purchased from TopoGEN, Inc. Agarose was purchased from Fisher. Quinobenzoxazine A-62176 (S-enantiomer) was provided by Abbott Laboratories or prepared by published procedure (Chu and Maleczka, Jr., 1987).
0.25 μg of KDNA was incubated with various concentrations of the quinobenzoxazines in a 20-μl reaction mixture containing 50 mM Tris-HCl (pH 8), 120 mM KCl, 10 mM MgCl2, and 0.5 mM each of ATP, dithiothreitol, and […] BSA for 10 min. Two units of human topoisomerase II (170 KDa form) were added to the mixture, which was then incubated at 37° C. for 30 min. The reaction was terminated with 0.1 volume of stop buffer (5% sarkosyl, 0.025% bromophenol blue, and 50% glycerol). The decatenation products were analyzed on 1% agarose gels run with 0.5 μg/ml ethidium bromide. The gels were scanned by FluoroImager and analyzed by ImageQuaNT software (Molecular Dynamics).

The test system of a further assay is B16 melanoma. In words: Cancer cell growth inhibition assay (MTT). In kind it is cell-based, murine. On the procedure:
(§1) Exponentially growing cells in 0.1 ml medium were seeded on Day 0 in 96-well microtiter plates. On Day 1, 0.1-ml aliquots of medium containing graded concentrations test agent were added in duplicate to the cell plates. After incubation at 37° C. in a humidified incubator, the plates were centrifuged briefly (1-2 min at 1000 rpm), and 100 μl of the growth medium was removed. Cell cultures were incubated with 50 μl of 3-(4,5-dimethylthiazyl-2-yl)-2,5-diphenyltetrazolium bromide MTT, 1 mg/ml in Dubecco's PBS for 4 h at 37° C. The resulting purple formazan precipitate was solubilized with 200 μl of 0.4 N HCl in isopropyl alcohol. Absorbance was quantitated using a Bio-Rad Model 3550 microplate reader at a test wavelength of 570 nm and a reference wavelength of 630 nm. Absorbance values were transferred to a 486 personal computer, and the IC50 values were determined using the computer program EZ-ED50 (Chen et al., 1993).

For assay [1], the system named is G-quadruplex structure formed on the HT4 template. In words: DNA synthesis arrest assay (Taq polymerase primer extension). Type of assay: biochemical. As to conditions: 55° C. On the procedure: FIG. 12A and FIG. 12B. Compound 2b (see FIG. 3) concentration-dependent block of Taq polymerase DNA synthesis by the G-quadruplex structure formed on the HT4 template at 55° C. (A) Autoradiogram of a sequencing gel showing enhanced DNA synthesis pausing at the G-quadruplex site with increasing concentrations of 2b. Arrows indicate the positions of the full length product of DNA synthesis, the G-quadruplex pausing site, and the free primer. (B) Quantitation of the gel using ImageQuaNT software.
This assay is similar to that described by Han and co-workers (Han et al., 1999). Briefly, primers (24 nM) labeled with [γ-^32P] were mixed with template DNA (12 nM)) in a Tris-HCl buffer (10 mM Tris, pH 8.0) containing K^+ (50 mM for the HT4 template) and denatured by heating at 90° C. for 5 min. After cooling down to room temperature, 2b was added at various concentrations and incubated at room temperature for 15 min. The primer extension reactions were initiated by adding dNTP (final concentration 100 μM), MgCl2 (final concentration […]), and Taq DNA polymerase (2.5 U/reaction, Boehringer Mannheim). The products were separated on a 12% polyacrylamide sequencing gel. The gels were then dried and visualized on a PhosphorImager (Molecular Dynamics model 445 S1). […]

A further assay relates to HT-29 colon. Briefly: Cancer cell growth inhibition assay (MTT). In kind it is cell-based, human. On the procedure:
as §1

The test system of another assay is H226 non-small-cell lung. Briefly: Cancer cell growth inhibition assay (MTT). Type of assay: cell-based, human. On the procedure:
as §1

A further assay concerns MDA-231 breast. Briefly: Cancer cell growth inhibition assay (MTT). Type of assay: cell-based, human. On the procedure: as §1
For a further assay, the system named is DU-145 prostate. Briefly: Cancer cell growth inhibition assay (MTT). In kind it is cell-based, human. On the procedure: as §1
The test system of the next assay is Raji lymphoma. Briefly: Cancer cell growth inhibition assay (MTT). Type of assay: cell-based, human. On the procedure:
as §1

For the next assay, the system named is sea urchin embryo system. In words: Sea urchin embryo system.

“Also recorded” adds a separate entry of the source.

As for `Cl.NC1CCN(c2c(F)cc3c(=O)c(C(=O)O)cn4c3c2Oc2c-4ccc3ccccc23)C1` (stereo not drawn) [Compound 2b, 1-(3-Aminopyrrolidin-1-yl)-2-fluoro-4-oxo-4H-pyrido[3,2,1-k,l]-benzo[f]-phenoxazine-5-carboxylic Acid], the “telomerase inhibition (qualitative)” value with human telomerase is on record as “dual-acting; also recorded: inhibit telomerase”. The DNA unwinding concn with supercoiled pHOT1 DNA is 3 µM. The 50% inhibitory concentration (IC50) on human topoisomerase II is 0.24 µM; in the assay with B16 melanoma it was 0.02 ± 0.002 µM; with HT-29 colon, 0.026 ± 0.001 µM; with H226 non-small-cell lung, 0.013 ± 0.005 µM; with MDA-231 breast it was 0.005 ± 0.001 µM; with DU-145 prostate, 0.03 ± 0.01 µM. Moreover, the IC50 in the assay with Raji lymphoma was found to be 0.034 ± 0.002 µM. Besides, the “primer extension by Taq DNA polymerase” value in assay [1] (100 μM) is recorded as “completely inhibited”. Moreover, in assay [1] (increasing concentration), the “polymerase pausing at the G-quadruplex site” value is on record as “enhanced pausing”. Also, the chromosomal aberrations entry with sea urchin embryo system was “cause chromosomal aberrations”.

Broadly, the IC50 is the midpoint of a concentration-inhibition curve.

The values above are taken from patent US6528517B1, “Synthesis of quinobenzoxazine analogues with topoisomerase II and quadruplex interactions for use as antineoplastic agents” (Board of Regents, The University of Texas System, priority 1998, dated 2003).
